From patent US10370369B2, “Acid addition salt of 3-aminoquinuclidine which does not exhibit deliquescence” (YUKI GOSEI KOGYO CO. LTD., priority 2015, dated 2019) come the findings set out here.

SMILES strings stand for the structures.

A short description of one data set: Deliquescence Test (Experimental Example 1, salts of racemic 3-aminoquinuclidine). In kind it is physicochemical. As to conditions: about 0.5 g allowed to stand for 1 hour, 25 to 27° C., humidity of 76 to 82%, visual evaluation. As to the method:
racemic 3-aminoquinuclidine.dihydrochloride of reagent, and the acid addition salts (about 0.5 g) of racemic 3-aminoquinuclidine obtained in Examples 1 to 6 and Comparative Examples 1 to 9 were allowed to stand for 1 hour, under the condition of 25 to 27° C., and a humidity of 76 to 82%, and a deliquescence was observed by a visual evaluation.
With `NC1CN2CCC1CC2` (racemic) [Example 1, racemic 3-aminoquinuclidine.sesquiphosphate], the Deliquescence entry is listed as “Not deliquesce”.

As for `NC1CN2CCC1CC2.O=C(O)c1ccc(C(=O)O)cc1` (racemic) [Example 3, racemic 3-aminoquinuclidine.monoterephthalate], the Deliquescence result is given as “Not deliquesce”.

`CC(=O)O.CC(=O)O.NC1CN2CCC1CC2` (racemic) [Comparative Example 4, racemic 3-aminoquinuclidine.diacetate]: the Deliquescence entry was “Immediately”.

For the compound `CCC(=O)O.NC1CN2CCC1CC2` (racemic) [Comparative Example 5, racemic 3-aminoquinuclidine.monopropionate], the Deliquescence result is given as “Immediately”.

On to `Cc1ccc(S(=O)(=O)O)cc1.NC1CN2CCC1CC2` (racemic) [Example 5, racemic 3-aminoquinuclidine.mono-p-toluenesulfonate], for which the Deliquescence entry was “Not deliquesce”.

Turning to `Cl.Cl.NC1CN2CCC1CC2` (racemic) [Reagent, racemic 3-aminoquinuclidine.dihydrochloride], the Deliquescence result is “Immediately”.

Consider `NC1CN2CCC1CC2.O=S(=O)(O)O` (racemic) [Comparative Example 2, racemic 3-aminoquinuclidine.monosulfate], for which the Deliquescence result is reported as “Gradually”.

On to `CS(=O)(=O)O.NC1CN2CCC1CC2` (racemic) [Comparative Example 9, racemic 3-aminoquinuclidine.monomesylate], for which the Deliquescence entry is on record as “Gradually”.

On to `NC1CN2CCC1CC2.O=[N+]([O-])O.O=[N+]([O-])O` (racemic) [Comparative Example 3, racemic 3-aminoquinuclidine.dinitrate], for which the Deliquescence result was “Gradually”.

On to `NC1CN2CCC1CC2.O=C(O)c1ccccc1.O=C(O)c1ccccc1` (racemic) [Comparative Example 6, racemic 3-aminoquinuclidine.dibenzoate], for which the Deliquescence entry is on record as “Gradually”.

`CC1(C)C2CCC1(CS(=O)(=O)O)C(=O)C2.NC1CN2CCC1CC2` (racemic) [Example 6, racemic 3-aminoquinuclidine.mono-(±)-10-camphorsulfonate]: the Deliquescence entry is “Not deliquesce”.

On to `NC1CN2CCC1CC2.NC1CN2CCC1CC2.NC1CN2CCC1CC2.O=C(O)CC(O)(CC(=O)O)C(=O)O.O=C(O)CC(O)(CC(=O)O)C(=O)O` (racemic) [Comparative Example 8, racemic 3-aminoquinuclidine.2/3 citrate], for which the Deliquescence result is “Immediately”.

Take `Br.Br.NC1CN2CCC1CC2` (racemic) [Comparative Example 1, racemic 3-aminoquinuclidine-dihydrobromide]: the Deliquescence result is “Gradually”.

Consider `NC1CN2CCC1CC2.O=C(O)C(=O)O` (racemic) [Example 4, racemic 3-aminoquinuclidine.monooxalate], for which the Deliquescence result was “Not deliquesce”.

Turning to `NC1CN2CCC1CC2.O=C(O)/C=C/C(=O)O` (racemic) [Example 2, racemic 3-aminoquinuclidine.monofumarate], the Deliquescence result is given as “Not deliquesce”.

Take `NC1CN2CCC1CC2.O=C(O)/C=C\C(=O)O` (racemic) [Comparative Example 7, racemic 3-aminoquinuclidine.monomaleate]: the Deliquescence result is on record as “Gradually”.

Another data set can be described thus: Deliquescence Test (Experimental Example 2, salts of (R)-3-aminoquinuclidine). As to conditions: about 0.5 g allowed to stand for 1 hour, 24 to 25° C., humidity of 74 to 76%, visual evaluation. In kind it is physicochemical. As for the experimental part:
The acid addition salts (about 0.5 g) of (R)-3-aminoquinuclidine obtained in Examples 7 to 13, Referential Example 2, and Comparative Examples 10 to 17 were allowed to stand for 1 hour, under the conditions of 24 to 25° C. and a humidity of 74 to 76%, and a deliquescence was observed by a visual evaluation.
With `N[C@H]1CN2CCC1CC2.O=C(O)/C=C/C(=O)O` [Example 9, (R)-3-aminoquinuclidine.monofumarate], the Deliquescence entry is “Not deliquesce”.

For `CCC(=O)O.N[C@H]1CN2CCC1CC2` [Comparative Example 13, (R)-3-aminoquinuclidine.monopropionate], the Deliquescence entry was “Immediately”.

Take `Cc1ccc(S(=O)(=O)O)cc1.N[C@H]1CN2CCC1CC2` [Example 12, (R)-3-aminoquinuclidine.mono-p-toluenesulfonate]: the Deliquescence entry is recorded as “Not deliquesce”.

On to `N[C@H]1CN2CCC1CC2.O=S(=O)(O)O` [Example 8, (R)-3-aminoquinuclidine.monosulfate], for which the Deliquescence entry is listed as “Not deliquesce”.

Turning to `N[C@H]1CN2CCC1CC2.N[C@H]1CN2CCC1CC2.N[C@H]1CN2CCC1CC2.O=C(O)CC(O)(CC(=O)O)C(=O)O.O=C(O)CC(O)(CC(=O)O)C(=O)O` [Comparative Example 16, (R)-3-aminoquinuclidine.2/3citrate], the Deliquescence result is given as “Immediately”.

On to `N[C@H]1CN2CCC1CC2.O=C(O)/C=C\C(=O)O` [Comparative Example 15, (R)-3-aminoquinuclidine.monomaleate], for which the Deliquescence entry was “Gradually”.

Take `CS(=O)(=O)O.N[C@H]1CN2CCC1CC2` [Comparative Example 17, (R)-3-aminoquinuclidine.monomesylate]: the Deliquescence entry was “Gradually”.

Turning to `Cl.Cl.N[C@H]1CN2CCC1CC2` [Referential Example 2, (R)-3-aminoquinuclidine.dihydrochloride], the Deliquescence entry was “Immediately”.

With `Br.Br.N[C@H]1CN2CCC1CC2` [Comparative Example 10, (R)-3-aminoquinuclidine-dihydrobromide], the Deliquescence entry is on record as “Gradually”.

For `CC(=O)O.CC(=O)O.N[C@H]1CN2CCC1CC2` [Comparative Example 12, (R)-3-aminoquinuclidine.diacetate], the Deliquescence entry is “Immediately”.

Consider `N[C@H]1CN2CCC1CC2.O=C(O)C(=O)O` [Example 11, (R)-3-aminoquinuclidine.monooxalate], for which the Deliquescence result is “Not deliquesce”.

On to `CC1(C)C2CCC1(CS(=O)(=O)O)C(=O)C2.N[C@H]1CN2CCC1CC2` [Example 13, (R)-3-aminoquinuclidine.mono-(−)-10-camphorsulfonate], for which the Deliquescence entry is reported as “Not deliquesce”.

As to `N[C@H]1CN2CCC1CC2.O=C(O)c1ccc(C(=O)O)cc1` [Example 10, (R)-3-aminoquinuclidine.monoterephthalate], the Deliquescence result is on record as “Not deliquesce”.

For the compound `N[C@H]1CN2CCC1CC2.O=C(O)c1ccccc1.O=C(O)c1ccccc1` [Comparative Example 14, (R)-3-aminoquinuclidine.dibenzoate], the Deliquescence result was “Immediately”.

As for `N[C@H]1CN2CCC1CC2.O=[N+]([O-])O.O=[N+]([O-])O` [Comparative Example 11, (R)-3-aminoquinuclidine.dinitrate], the Deliquescence result was “Gradually”.

With `N[C@H]1CN2CCC1CC2.N[C@H]1CN2CCC1CC2.O=P(O)(O)O.O=P(O)(O)O.O=P(O)(O)O` [Example 7, (R)-3-aminoquinuclidine.sesquiphosphate], the Deliquescence entry is “Not deliquesce”.

A further data set in a line: Deliquescence Test (Experimental Example 3, salts of (S)-3-aminoquinuclidine). As to conditions: about 0.5 g allowed to stand for 1 hour, 24 to 26° C., humidity of 75 to 78%, visual evaluation. In kind it is physicochemical. As to the method: The acid addition salts (about 0.5 g) of (S)-3-aminoquinuclidine obtained in Examples 14 to 19, and Comparative Examples 18 to 19 were allowed to stand for 1 hour, under the conditions of 24 to 26° C., and a humidity of 75 to 78%, and a deliquescence was observed by a visual evaluation.
Regarding `CC(=O)O.CC(=O)O.N[C@@H]1CN2CCC1CC2` [Comparative Example 19, (S)-3-aminoquinuclidine.diacetate], the Deliquescence result is “Immediately”.

For `N[C@@H]1CN2CCC1CC2.O=C(O)/C=C/C(=O)O` [Example 16, (S)-3-aminoquinuclidine.monofumarate], the Deliquescence entry was “Not deliquesce”.

In the case of `N[C@@H]1CN2CCC1CC2.O=C(O)C(=O)O` [Example 18, (S)-3-aminoquinuclidine.monooxalate], the Deliquescence entry is on record as “Not deliquesce”.

Take `Cl.Cl.N[C@@H]1CN2CCC1CC2` [Referential Example 4, (S)-3-aminoquinuclidine.dihydrochloride]: the Deliquescence result was “Immediately”.

For the compound `N[C@@H]1CN2CCC1CC2.O=[N+]([O-])O.O=[N+]([O-])O` [Comparative Example 18, (S)-3-aminoquinuclidine.dinitrate], the Deliquescence result was “Gradually”.

As to `N[C@@H]1CN2CCC1CC2.N[C@@H]1CN2CCC1CC2.O=P(O)(O)O.O=P(O)(O)O.O=P(O)(O)O` [Example 14, (S)-3-aminoquinuclidine.sesquiphosphate], the Deliquescence result is “Not deliquesce”.

Consider `Cc1ccc(S(=O)(=O)O)cc1.N[C@@H]1CN2CCC1CC2` [Example 19, (S)-3-aminoquinuclidine.mono-p-toluenesulfonate], for which the Deliquescence entry was “Not deliquesce”.

As for `N[C@@H]1CN2CCC1CC2.O=S(=O)(O)O` [Example 15, (S)-3-aminoquinuclidine.monosulfate], the Deliquescence entry is reported as “Not deliquesce”.

Consider `N[C@@H]1CN2CCC1CC2.O=C(O)c1ccc(C(=O)O)cc1` [Example 17, (S)-3-aminoquinuclidine.monoterephthalate], for which the Deliquescence result was “Not deliquesce”.
